Holding throughout (type): biochemical
Experiment [1] concerns the target T1, human ROCK2 enzyme kinase domain (Homo sapiens, UniProt O75116).
T1 construct: GST; purchased Carna BioSciences 01-110
In words: fluorescence coupling (TR-FRET) enzymatic assay, ROCK2. The following applies: 4 nM enzyme, 50 nM Ulight-CREBTide, one hour room temperature. Here is the method:
(§1) Dose-response curves for compounds of the present invention were determined using a fluorescence coupling enzymatic assay using purified C-terminal truncated human ROCK1 catalytic domain (amino acids 1-477 of accession number NP_005397.1) fused to GST (Carna BioSciences, Catalog #01-109) and purified C-terminal truncated human ROCK2 enzyme kinase domain (amino acids 1-553 of accession number NP_004841.2) fused to GST BioSciences, Catalog #01-110). In addition, full length cGMP-dependent protein kinase 1 (PKG or PRKG1; amino acids 1-686 of accession number NP_006249.1) fused to GST (Carna BioSciences, Catalog #01-142), full length PKACα (PRKACA; amino acids 1-351 of accession number NP_002721.1) fused to GST (Carna BioSciences, Catalog #01-127), and C-terminal truncated human AKT1 catalytic domain (amino acids 104-480 of accession number NP_005154.1) fused to GST Biosciences, Catalog #01-101) were used as a control to measure any non-desired off-target kinase activity.
(§2) Briefly, compounds of the present invention were solubilized in DMSO and a series of 12, three-fold serial dilutions were made for each compound in 2.5% DMSO. The initial starting concentration for the serial dilutions of each compound was 10 μM or 100 μM. Control samples lacking compound, ROCK enzyme or ATP also were prepared and processed in parallel with compound test samples.
(§3) A 4 μL aliquot of each serial dilution of test compound diluted in H2O with 2.5% DMSO was added to a well containing 4 μL of 10 nM purified N-truncated ROCK1 (4 nM final concentration), 10 nM purified N-truncated ROCK2 enzyme (4 nM final concentration), 1.25 nM AKT1 (0.5 nM final concentration), 25 pM PKACA (10 pM final concentration) or 20 nM PKG (8 nM final concentration), in reaction buffer containing 50 mM Hepes, pH 7.5, 1 mM EGTA, 10 mM MgCl2, 2 mM DTT, and 0.01% Tween 20 (final concentration). To initiate the enzymatic reaction, 2 μL of a solution was added to each well to provide a final concentration of 50 nM Ulight-CREBTide peptide substrate (Perkin Elmer, Catalog #TRF0107) and 4 μM ATP for ROCK1 and AKT1 assays, […] for ROCK2 assays and 30 μM ATP for PKG assays, or 1 μM ATP for PKACA assays. The reaction mixtures were incubated at room temperature for one hour. After one hour, the reaction was stopped by the addition of a 10 solution of an Europium-labelled phospho-CREB (Ser133) antibody (Perkin Elmer, Catalog #TRF0200) in LANCE buffer supplemented with 20 mM EDTA. The stopped reaction mixtures were incubated at room temperature for 90 minutes. The TR-FRET 665/620 ratios were determined using a Clariostar monochromator plate reader instrument (BMG LabTech) in accordance with the manufacturer's instructions. The ICso value for each compound was determined from each dose-response curve using GraphPad Prism 7 software with a sigmodial dose response. Key: A is IC50≤100 nM; B is 100 nM<IC50<1000 nM; C is 1,000<IC50≤10,000 nM; D is IC50>10,000 nM

The target of experiment [2] is T2, human ROCK1 catalytic domain (Homo sapiens, UniProt Q13464).
T2 construct: GST; purchased Carna BioSciences 01-109
T2 sequence (Q13464 1-477): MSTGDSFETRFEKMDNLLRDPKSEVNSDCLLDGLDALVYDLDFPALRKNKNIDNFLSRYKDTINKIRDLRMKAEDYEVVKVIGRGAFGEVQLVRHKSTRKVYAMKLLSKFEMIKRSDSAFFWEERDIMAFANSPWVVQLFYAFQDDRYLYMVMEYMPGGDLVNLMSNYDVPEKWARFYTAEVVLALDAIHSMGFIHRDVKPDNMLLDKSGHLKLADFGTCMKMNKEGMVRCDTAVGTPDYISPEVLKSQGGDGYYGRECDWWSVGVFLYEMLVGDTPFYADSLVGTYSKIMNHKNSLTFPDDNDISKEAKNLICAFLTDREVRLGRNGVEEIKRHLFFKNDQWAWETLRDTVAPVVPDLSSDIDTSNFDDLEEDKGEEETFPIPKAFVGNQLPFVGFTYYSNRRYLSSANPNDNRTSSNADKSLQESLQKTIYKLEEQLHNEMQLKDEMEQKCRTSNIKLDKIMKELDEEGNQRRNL
In words: fluorescence coupling (TR-FRET) enzymatic assay, ROCK1. The protocol:
as §2
The reaction mixtures were incubated at room temperature for one hour. After one hour, the reaction was stopped by the addition of a 10 solution of an Europium-labelled phospho-CREB (Ser133) antibody (Perkin Elmer, Catalog #TRF0200) in LANCE buffer supplemented with 20 mM EDTA. The stopped reaction mixtures were incubated at room temperature for 90 minutes. […] The ICso value for each compound was determined from each dose-response curve using GraphPad Prism 7 software with a sigmodial dose response.

The target in experiment [3] is T3, cGMP-dependent protein kinase 1 (PKG or PRKG1) (Homo sapiens, UniProt Q13976).
T3 construct: GST; purchased Carna BioSciences 01-142
T3 sequence (Q13976 1-686 isoform Q13976-2): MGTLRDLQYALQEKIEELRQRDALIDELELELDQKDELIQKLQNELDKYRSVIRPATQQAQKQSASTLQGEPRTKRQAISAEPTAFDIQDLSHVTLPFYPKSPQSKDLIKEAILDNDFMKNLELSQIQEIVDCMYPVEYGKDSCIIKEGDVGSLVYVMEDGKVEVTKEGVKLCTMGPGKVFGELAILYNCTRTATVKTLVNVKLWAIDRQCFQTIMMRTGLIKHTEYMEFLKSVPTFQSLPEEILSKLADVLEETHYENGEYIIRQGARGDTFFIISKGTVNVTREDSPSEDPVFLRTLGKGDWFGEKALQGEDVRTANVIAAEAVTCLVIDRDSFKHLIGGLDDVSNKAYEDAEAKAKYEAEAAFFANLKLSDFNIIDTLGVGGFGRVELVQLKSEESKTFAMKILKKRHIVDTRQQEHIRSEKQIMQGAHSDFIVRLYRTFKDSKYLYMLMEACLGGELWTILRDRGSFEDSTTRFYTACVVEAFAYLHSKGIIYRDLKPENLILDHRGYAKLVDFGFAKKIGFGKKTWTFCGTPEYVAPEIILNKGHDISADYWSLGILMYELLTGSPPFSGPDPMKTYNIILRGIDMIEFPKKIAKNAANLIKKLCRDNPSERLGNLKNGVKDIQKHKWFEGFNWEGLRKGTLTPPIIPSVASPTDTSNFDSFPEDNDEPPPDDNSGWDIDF
In words: fluorescence coupling (TR-FRET) enzymatic assay, PKG off-target control. The following applies: 8 nM enzyme, 30 μM ATP, 50 nM Ulight-CREBTide, one hour room temperature. The protocol:
as §1, §2, §3

Experiment [4] has as its target T4, human AKT1 catalytic domain (Homo sapiens, UniProt P31749).
T4 construct: GST; purchased Carna BioSciences 01-101
In words: fluorescence coupling (TR-FRET) enzymatic assay, AKT1 off-target control. The conditions noted are these: 0.5 nM enzyme, 4 μM ATP, 50 nM Ulight-CREBTide, one hour room temperature. Here is the method: as §1, §2, §3
(In general: TR-FRET usually uses a lanthanide donor and a delayed reading to cut background.)

A further experiment has as its target T5, PKACα (PRKACA) (Homo sapiens, UniProt P17612).
T5 construct: GST; purchased Carna BioSciences 01-127
The experiment is described as follows: fluorescence coupling (TR-FRET) enzymatic assay, PKACA off-target control. The following applies: 10 pM enzyme, 1 μM ATP, 50 nM Ulight-CREBTide, one hour room temperature. The protocol: as §1, §2, §3

Setting [5] is: 4 nM enzyme, 4 μM ATP, 50 nM Ulight-CREBTide, one hour room temperature, read-out: ROCK1 IC50.

Structures are written as SMILES. Where two headings read alike, the source gives them in different places.

T1 sequence (O75116 1-553): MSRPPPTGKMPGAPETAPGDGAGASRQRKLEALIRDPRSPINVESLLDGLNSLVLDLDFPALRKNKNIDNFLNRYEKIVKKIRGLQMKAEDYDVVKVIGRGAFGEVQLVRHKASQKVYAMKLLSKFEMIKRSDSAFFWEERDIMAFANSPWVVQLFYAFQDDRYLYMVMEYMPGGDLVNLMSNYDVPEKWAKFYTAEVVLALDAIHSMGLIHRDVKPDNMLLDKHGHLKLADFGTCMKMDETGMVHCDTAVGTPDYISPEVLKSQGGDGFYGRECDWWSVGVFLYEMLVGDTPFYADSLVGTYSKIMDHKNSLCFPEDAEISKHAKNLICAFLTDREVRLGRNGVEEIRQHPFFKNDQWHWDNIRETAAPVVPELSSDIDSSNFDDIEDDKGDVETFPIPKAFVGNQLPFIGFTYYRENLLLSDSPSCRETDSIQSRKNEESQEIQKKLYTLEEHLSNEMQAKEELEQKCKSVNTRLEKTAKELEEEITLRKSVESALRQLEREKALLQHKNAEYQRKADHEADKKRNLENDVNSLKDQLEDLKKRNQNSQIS
T4 sequence (P31749 104-480): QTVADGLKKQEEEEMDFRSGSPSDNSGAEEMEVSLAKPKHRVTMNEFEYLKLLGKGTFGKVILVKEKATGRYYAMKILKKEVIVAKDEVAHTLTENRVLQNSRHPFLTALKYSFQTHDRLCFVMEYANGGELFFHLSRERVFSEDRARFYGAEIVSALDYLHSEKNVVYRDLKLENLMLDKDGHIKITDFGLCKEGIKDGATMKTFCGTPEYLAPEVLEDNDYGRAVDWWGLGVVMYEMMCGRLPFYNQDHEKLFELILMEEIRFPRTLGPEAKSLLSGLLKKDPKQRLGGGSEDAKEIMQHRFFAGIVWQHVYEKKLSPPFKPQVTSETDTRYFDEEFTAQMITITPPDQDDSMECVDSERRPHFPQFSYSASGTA

For the molecule `Cc1cccc2c1CCN2S(=O)(=O)c1cccc2c(=O)[nH]ccc12` [Example 1, 5-((4-Methylindolin-1-yl)sulfonyl)isoquinolin-1 (2H)-one], the IC50 (usually the concentration that gives 50% inhibition) in experiment [1] is 1 to 10 µM; in experiment [2] (setting [5]), 1 to 10 µM; in experiment [3], over 10 µM; in experiment [4], over 10 µM; against PKACα (PRKACA), over 10 µM.

Turning to `O=c1[nH]ccc2c(S(=O)(=O)N3CCc4cc(O)ccc43)cccc12` [Example 2, 5-((5-Hydroxyindolin-1-yl)sulfonyl)isoquinolin-1 (2H)-one], the IC50 (in experiment [1]; in experiment [2] (setting [5]); in experiment [3]; in experiment [4]; against PKACα (PRKACA)) was over 10 µM in each case.

As to `O=c1[nH]ccc2c(S(=O)(=O)N3CCc4ccccc43)cccc12` [Example 3, 5-(Indolin-1-ylsulfonyl)isoquinolin-1 (2H)-one], the IC50 was 1 to 10 µM in experiment [1]; 1 to 10 µM in experiment [2] (setting [5]); over 10 µM in experiment [3]; over 10 µM in experiment [4]; over 10 µM against PKACα (PRKACA).

Consider `O=c1[nH]ccc2c(S(=O)(=O)N3CCc4ccc(Cl)cc43)cccc12` [Example 4, 5-((6-Chloroindolin-1-yl)sulfonyl)isoquinolin-1 (2H)-one], for which the IC50 was 0.1 to 1 µM in experiment [1]; 0.1 to 1 µM in experiment [2] (setting [5]); over 10 µM in experiment [3]; over 10 µM in experiment [4]; over 10 µM at PKACα (PRKACA).

In the case of `O=c1[nH]ccc2c(S(=O)(=O)N3CCc4ccc(F)cc43)cccc12` [Example 5, 5-((6-Fluoroindolin-1-yl)sulfonyl)isoquinolin-1 (2H)-one], the IC50 in experiment [1] was 1 to 10 µM; in experiment [2] (setting [5]), 1 to 10 µM; in experiment [3], over 10 µM; in experiment [4] it was over 10 µM; against PKACα (PRKACA), over 10 µM.

As for `Cc1ccc2c(c1)N(S(=O)(=O)c1cccc3c(=O)[nH]ccc13)CC2` [Example 6, 5-((6-Methylindolin-1-yl)sulfonyl)isoquinolin-1 (2H)-one], the IC50 in experiment [1] is 0.1 to 1 µM; in experiment [2] (setting [5]), 1 to 10 µM; in experiment [3] it was over 10 µM; in experiment [4], over 10 µM; on PKACα (PRKACA) it was over 10 µM.

As to `O=c1[nH]ccc2c(S(=O)(=O)N3CCc4c(CO)cccc43)cccc12` [Example 7, 5-((4-(Hydroxymethyl)indolin-1-yl)sulfonyl)isoquinolin-1 (2H)-one], the IC50 is 1 to 10 µM in experiment [1]; 1 to 10 µM in experiment [2]; over 10 µM in experiment [3]; over 10 µM in experiment [4]; over 10 µM against PKACα (PRKACA).

As to `O=c1[nH]ccc2c(S(=O)(=O)N3CCc4c3cccc4C(F)(F)F)cccc12` [Example 8, 5-((4-(Trifluoromethyl)indolin-1-yl)sulfonyl)isoquinolin-1 (2H)-one], the IC50 (in experiment [1]; in experiment [2] (setting [5]); in experiment [3]; in experiment [4]; against PKACα (PRKACA)) was over 10 µM each time.

With `O=c1[nH]ccc2c(S(=O)(=O)N3CCc4c(C5CC5)cccc43)cccc12` [Example 9, 5-((4-Cyclopropylindolin-1-yl)sulfonyl)isoquinolin-1 (2H)-one], the IC50 (in experiment [1]; in experiment [2] (setting [5]); in experiment [3]; in experiment [4]; at PKACα (PRKACA)) was over 10 µM throughout.

Take `CCc1cccc2c1CCN2S(=O)(=O)c1cccc2c(=O)[nH]ccc12` [Example 10, 5-((4-ethylindolin-1-yl)sulfonyl)isoquinolin-1 (2H)-one]: the IC50 (in experiment [1]; in experiment [2] (setting [5]); in experiment [3]; in experiment [4]; at PKACα (PRKACA)) was over 10 µM throughout.

On to `CC(O)c1cccc2c1CCN2S(=O)(=O)c1cccc2c(=O)[nH]ccc12` (stereo not shown) [Example 11, 5-((4-(1-Hydroxyethyl)indolin-1-yl)sulfonyl)isoquinolin-1 (2H)-one], for which the IC50 is 1 to 10 µM in experiment [1]; 1 to 10 µM in experiment [2] (setting [5]); over 10 µM in experiment [3]; over 10 µM in experiment [4]; over 10 µM against PKACα (PRKACA).

The values are drawn from patent US11912719B2, “Substituted isoquinolines as rock kinase inhibitors” (Cervello Therapeutics LLC, priority 2018, dated 2024).
